How the values were obtained:
CNE [1] = assay: Cytotoxicity against human CNE1 cells assessed as cell viability at 100 uM relative to control; type: functional; settings: read-out: Activity
MDA-MB-468 [2] = assay: Cytotoxicity against human MDA-MB-468 cells assessed as reduction in cell viability; type: functional, cell-based
A549 [3] = assay: Cytotoxicity against human A549 cells assessed as reduction in cell viability; type: functional, cell-based
HT-29 [4] = assay: Cytotoxicity against human HT-29 cells assessed as reduction in cell viability; type: functional, cell-based
MCF7 [5] = assay: Cytotoxicity against human MCF7 cells assessed as cell viability at 100 uM relative to control; type: functional; settings: read-out: Activity
SUNE1 [6] = assay: Cytotoxicity against human SUNE1 cells assessed as cell viability at 100 uM relative to control; type: functional; settings: read-out: Activity
SW1990 [7] = assay: Cytotoxicity against human SW1990 cells assessed as cell viability at 100 uM relative to control; type: functional; settings: read-out: Activity
ASPC1 [8] = assay: Cytotoxicity against human AsPC1 cells assessed as reduction in cell viability; type: functional, cell-based
SW48 [9] = assay: Cytotoxicity against human SW48 cells assessed as reduction in cell viability; type: functional, cell-based
T47D [10] = assay: Cytotoxicity against human T47D cells assessed as cell viability at 100 uM relative to control; type: functional; settings: read-out: Activity
T47D [11] = assay: Cytotoxicity against human T47D cells assessed as reduction in cell viability; type: functional, cell-based
Caco-2 [12] = assay: Cytotoxicity against human Caco2 cells assessed as reduction in cell viability; type: functional, cell-based
ASPC1 [13] = assay: Cytotoxicity against human AsPC1 cells assessed as cell viability at 100 uM relative to control; type: functional; settings: read-out: Activity
MDA-MB-231 [14] = assay: Cytotoxicity against human MDA-MB-231 cells assessed as reduction in cell viability; type: functional, cell-based
SH-SY5Y [15] = assay: Cytotoxicity against human SH-SY5Y cells assessed as cell viability at 100 uM relative to control; type: functional; settings: read-out: Activity
[16] = Cytotoxicity against human HK1 cells assessed as cell viability at 100 uM relative to control; type: functional; settings: HK-1, read-out: Activity
MRC5 = assay: Cytotoxicity against human MRC5 cells assessed as reduction in cell viability; type: cell-based
HCT-116 [17] = assay: Cytotoxicity against human HCT116 cells assessed as cell viability at 100 uM relative to control; type: functional; settings: read-out: Activity
NCI-H1299 [18] = assay: Cytotoxicity against human H1299 cells assessed as reduction in cell viability; type: functional, cell-based
A549 [19] = assay: Cytotoxicity against human A549 cells assessed as cell viability at 100 uM relative to control; type: functional; settings: read-out: Activity
BXPC-3 [20] = assay: Cytotoxicity against human BxPC3 cells assessed as reduction in cell viability; type: functional, cell-based
[21] = Cytotoxicity against human MCF10A cells assessed as cell viability at 100 uM relative to control; type: cell-based, MCF-10A; settings: read-out: Activity
[22] = Cytotoxicity against human MRC5 cells assessed as cell viability at 100 uM relative to control; type: cell-based; settings: read-out: Activity
MDA-MB-231 [23] = assay: Cytotoxicity against human MDA-MB-231 cells assessed as cell viability at 100 uM relative to control; type: functional; settings: read-out: Activity
MDA-MB-468 [24] = assay: Cytotoxicity against human MDA-MB-468 cells assessed as cell viability at 100 uM relative to control; type: functional; settings: read-out: Activity
SK-BR-3 [25] = assay: Cytotoxicity against human SKBR3 cells assessed as cell viability at 100 uM relative to control; type: functional; settings: read-out: Activity
Caco-2 [26] = assay: Cytotoxicity against human Caco2 cells assessed as cell viability at 100 uM relative to control; type: functional; settings: read-out: Activity
MCF7 [27] = assay: Cytotoxicity against human MCF7 cells assessed as reduction in cell viability; type: functional, cell-based
[28] = Cytotoxicity against human HK1 cells assessed as reduction in cell viability; type: functional, cell-based; settings: HK-1
HT-29 [29] = assay: Cytotoxicity against human HT-29 cells assessed as cell viability at 100 uM relative to control; type: functional; settings: read-out: Activity
HCT-116 [30] = assay: Cytotoxicity against human HCT116 cells assessed as reduction in cell viability; type: functional, cell-based
SW48 [31] = assay: Cytotoxicity against human SW48 cells assessed as cell viability at 100 uM relative to control; type: functional; settings: read-out: Activity
SH-SY5Y [32] = assay: Cytotoxicity against human SH-SY5Y cells assessed as reduction in cell viability; type: functional, cell-based
SUNE1 [33] = assay: Cytotoxicity against human SUNE1 cells assessed as reduction in cell viability; type: functional, cell-based
SK-BR-3 [34] = assay: Cytotoxicity against human SKBR3 cells assessed as reduction in cell viability; type: functional, cell-based
BXPC-3 [35] = assay: Cytotoxicity against human BxPC3 cells assessed as cell viability at 100 uM relative to control; type: functional; settings: read-out: Activity
NCI-H1299 [36] = assay: Cytotoxicity against human H1299 cells assessed as cell viability at 100 uM relative to control; type: functional; settings: read-out: Activity
SW1990 [37] = assay: Cytotoxicity against human SW1990 cells assessed as reduction in cell viability; type: functional, cell-based
MCF-10A = assay: Cytotoxicity against human MCF10A cells assessed as reduction in cell viability; type: cell-based
CNE [38] = assay: Cytotoxicity against human CNE1 cells assessed as reduction in cell viability; type: functional, cell-based

| SMILES | viability at 100 µM (CNE [1]) | IC50 (MDA-MB-468 [2]) | IC50 (A549 [3]) | IC50 (HT-29 [4]) | viability at 100 µM (MCF7 [5]) | viability at 100 µM (SUNE1 [6]) | viability at 100 µM (SW1990 [7]) | IC50 (ASPC1 [8]) | IC50 (SW48 [9]) | viability at 100 µM (T47D [10]) | IC50 (T47D [11]) | IC50 (Caco-2 [12]) | viability at 100 µM (ASPC1 [13]) | IC50 (MDA-MB-231 [14]) | viability at 100 µM (SH-SY5Y [15]) | viability at 100 µM [16] | IC50 (MRC5) | viability at 100 µM (HCT-116 [17]) | IC50 (NCI-H1299 [18]) | viability at 100 µM (A549 [19]) | also measured |
| --- | --- | --- | --- | --- | --- | --- | --- | --- | --- | --- | --- | --- | --- | --- | --- | --- | --- | --- | --- | --- | --- |
| O=[N+]([O-])c1cc(C(F)(F)F)ccc1NC(CO)CO | 106% | > 100 µM | > 100 µM | > 100 µM | 57.4% | 83.4% | 68.5% | > 100 µM | > 100 µM | 68.6% | > 100 µM | > 100 µM | 81.8% | > 100 µM | 84.9% | 92.9% | > 100 µM | 83.9% | > 100 µM | 57.9% | IC50 (BXPC-3 [20]): > 100 µM; viability at 100 µM [21]: 102%; viability at 100 µM [22]: 64.9%; viability at 100 µM (MDA-MB-231 [23]): 67.3%; viability at 100 µM (MDA-MB-468 [24]): 100%; viability at 100 µM (SK-BR-3 [25]): 66.4%; viability at 100 µM (Caco-2 [26]): 89.5%; IC50 (MCF7 [27]): > 100 µM; IC50 [28]: > 100 µM; viability at 100 µM (HT-29 [29]): 95.2%; IC50 (HCT-116 [30]): > 100 µM; viability at 100 µM (SW48 [31]): 98.8%; IC50 (SH-SY5Y [32]): > 100 µM; IC50 (SUNE1 [33]): > 100 µM; IC50 (SK-BR-3 [34]): > 100 µM; viability at 100 µM (BXPC-3 [35]): 108%; viability at 100 µM (NCI-H1299 [36]): 91.3%; IC50 (SW1990 [37]): > 100 µM; IC50 (MCF-10A): > 100 µM; IC50 (CNE [38]): > 100 µM |
| O=[N+]([O-])c1ccc(NC(CO)CO)cc1C(F)(F)F | 100% | > 100 µM | > 100 µM | > 100 µM | 49.7% | 104% | 71.5% | > 100 µM | > 100 µM | 71.2% | > 100 µM | > 100 µM | 87.3% | > 100 µM | 70.8% | 92.8% | 41 µM | 86.8% | > 100 µM | 61.9% | IC50 (BXPC-3 [20]): > 100 µM; viability at 100 µM [21]: 102%; viability at 100 µM [22]: 32.8%; viability at 100 µM (MDA-MB-231 [23]): 65.7%; viability at 100 µM (MDA-MB-468 [24]): 98.7%; viability at 100 µM (SK-BR-3 [25]): 79.4%; viability at 100 µM (Caco-2 [26]): 96.1%; IC50 (MCF7 [27]): 88.1 µM; IC50 [28]: > 100 µM; viability at 100 µM (HT-29 [29]): 110%; IC50 (HCT-116 [30]): > 100 µM; viability at 100 µM (SW48 [31]): 78.9%; IC50 (SH-SY5Y [32]): > 100 µM; IC50 (SUNE1 [33]): > 100 µM; IC50 (SK-BR-3 [34]): > 100 µM; viability at 100 µM (BXPC-3 [35]): 108%; viability at 100 µM (NCI-H1299 [36]): 72.3%; IC50 (SW1990 [37]): > 100 µM; IC50 (MCF-10A): > 100 µM; IC50 (CNE [38]): > 100 µM |
| O=[N+]([O-])c1cc(C(F)(F)F)ccc1NC(CCl)CCl | 27.1% | > 100 µM | 33.3 µM | 87.8 µM | 21.4% | 42.3% | 42.1% | > 100 µM | 62.3 µM | 25.6% | 35.1 µM | 39.9 µM | 51.1% | 54.5 µM | 33.7% | 59.7% | 62.1 µM | 45.1% | > 100 µM | 24.6% | IC50 (BXPC-3 [20]): > 100 µM; viability at 100 µM [21]: 77.1%; viability at 100 µM [22]: 29.9%; viability at 100 µM (MDA-MB-231 [23]): 32.1%; viability at 100 µM (MDA-MB-468 [24]): 65.1%; viability at 100 µM (SK-BR-3 [25]): 38.5%; viability at 100 µM (Caco-2 [26]): 21.9%; IC50 (MCF7 [27]): 34.3 µM; IC50 [28]: > 100 µM; viability at 100 µM (HT-29 [29]): 47.1%; IC50 (HCT-116 [30]): 82.1 µM; viability at 100 µM (SW48 [31]): 32.8%; IC50 (SH-SY5Y [32]): 62.5 µM; IC50 (SUNE1 [33]): 92.9 µM; IC50 (SK-BR-3 [34]): 67.8 µM; viability at 100 µM (BXPC-3 [35]): 62.9%; viability at 100 µM (NCI-H1299 [36]): 52.4%; IC50 (SW1990 [37]): 92.1 µM; IC50 (MCF-10A): > 100 µM; IC50 (CNE [38]): 32.1 µM |

Source: ChEMBL document CHEMBL4610038, “The synthesis of trifluoromethylated N-nitroaryl-2-amino-1,3-dichloropropane derivatives and their evaluation as potential anti-cancer agents” (Bioorg Med Chem Lett, 2020)
